Experimental data reported in patent US6015814A, “Quinazoline derivative” (Zeneca Limited, priority 1995, dated 2000).

Experiments:
[1] = biological target: T1, EGF receptor tyrosine kinase (Homo sapiens, UniProt P00533); assay: in vitro assay, inhibition of EGF receptor tyrosine kinase (test (a)); assay type: biochemical, human (A-431 cells, derived from human vulval carcinoma); details: approximately
T1 construct: Receptor tyrosine kinase was obtained in partially purified form from A-431 cells; endogenous in cells; host or cells: A-431 cells (human vulval carcinoma)
Method: (a) An in vitro assay which determines the ability of a test compound to inhibit the enzyme EGF receptor tyrosine kinase. Receptor tyrosine kinase was obtained in partially purified form from A-431 cells (derived from human vulval carcinoma) by the procedures described below which are related to those described by Carpenter et al., J. Biol. Chem., 1979. 254, 4884, Cohen et al., J. Biol. Chem., 1982, 257, 1523 and by Braun et al., J. Biol. Chem., 1984, 259, 2051.
A-431 cells were grown to confluence using Dulbecco's modified Eagle's medium (DMEM) containing 5% fetal calf serum (FCS). The obtained cells were homogenised in a hypotonic borate/EDTA buffer at pH 10.1. The homogenate was centrifuged at 400 g for 10 minutes at 0-4° C. The supernatant was centrifuged at 25,000 g for 30 minutes at 0-4° C. […]
The test compound/EGF mixture solution (5 μl) was added to the test enzyme solution (10 μl) and the mixture was incubated at 0-4° C. for 30 minutes. […] Radioactivity present in the filter paper was measured using a liquid scintillation counter (Sequence A). […]
Receptor tyrosine kinase inhibition was calculated as follows: [formula]
The extent of inhibition was then determined at a range of concentrations of test compound to give an IC50 value.

[2] = tested on: human naso-pharyngeal cancer cell line KB; assay: in vitro assay, inhibition of EGF-stimulated growth of the human naso-pharyngeal cancer cell line KB (test (b)); assay type: cell-based; details: 72 h, KB cells, 3 days, approximately
Method: (b) An in vitro assay which determines the ability of a test compound to inhibit the EGF-stimulated growth of the human naso-pharyngeal cancer cell line KB.
KB cells were seeded into wells at a density of 1×10^4 -1.5×10^4 cells per well and grown for 24 hours in DMEM supplemented with 5% FCS (charcoal-stripped). Cell growth was determined after incubation for 3 days by the extent of metabolism of MTT tetrazolium dye to furnish a bluish colour. Cell growth was then determined in the presence of EGF (10 ng/ml) or in the presence of EGF (10 ng/ml) and a test compound at a range of concentrations. An ICSO value could then be calculated.

[3] = tested on: human vulval epidermoid carcinoma cell line A-431; assay: in vivo assay, inhibition of growth of A-431 xenografts in athymic nude mice (test (c)); set-up: species or system human xenografts in athymic nude mice (strain ONU:Alpk); details: daily dose of 50 mg/kg; usually oral; relative to untreated controls
Method: (c) An in-vivo assay in a group of athymic nude mice (strain ONU:Alpk) which determines the ability of a test compound (usually administered orally as a ball-milled suspension in 0.5% polysorbate) to inhibit the growth of xenografts of the human vulval epidermoid carcinoma cell line A-431. A-431 cells were maintained in culture in DMEM supplemented with 5% FCS and 2 mM glutamine. Freshly cultured cells were harvested by trypsinization and injected subcutaneously (10 million cells/0.1 ml/mouse) into both flanks of a number of donor nude mice. When sufficient tumour material was available (after approximately 9 to 14 days), fragments of tumour tissue were transplanted in the flanks of recipient nude mice (test day 0). Generally, on the seventh day after transplantation (test day 7) groups of 7 to 10 mice with similar-sized tumours were selected and dosing of the test compound was commenced. Once daily dosing of test compound was continued for a total of 13 days (test days 7 to 19 inclusive). In some studies the dosing of the test compound was continued beyond test day 19, for example to test day 26. In each case, on the following test day the animals were killed and the final tumour volume was calculated from measurements of the length and width of the tumours. Results were calculated as a percentage inhibition of tumour volume relative to untreated controls.

[4] = tested on: human mammary carcinoma which expresses EGF receptor tyrosine kinase; details: athymic nude mice; cited from earlier work
[5] = tested on: another carcinoma which does not express EGF receptor tyrosine kinase; details: cited from earlier work

T1 sequence (P00533 25-1210): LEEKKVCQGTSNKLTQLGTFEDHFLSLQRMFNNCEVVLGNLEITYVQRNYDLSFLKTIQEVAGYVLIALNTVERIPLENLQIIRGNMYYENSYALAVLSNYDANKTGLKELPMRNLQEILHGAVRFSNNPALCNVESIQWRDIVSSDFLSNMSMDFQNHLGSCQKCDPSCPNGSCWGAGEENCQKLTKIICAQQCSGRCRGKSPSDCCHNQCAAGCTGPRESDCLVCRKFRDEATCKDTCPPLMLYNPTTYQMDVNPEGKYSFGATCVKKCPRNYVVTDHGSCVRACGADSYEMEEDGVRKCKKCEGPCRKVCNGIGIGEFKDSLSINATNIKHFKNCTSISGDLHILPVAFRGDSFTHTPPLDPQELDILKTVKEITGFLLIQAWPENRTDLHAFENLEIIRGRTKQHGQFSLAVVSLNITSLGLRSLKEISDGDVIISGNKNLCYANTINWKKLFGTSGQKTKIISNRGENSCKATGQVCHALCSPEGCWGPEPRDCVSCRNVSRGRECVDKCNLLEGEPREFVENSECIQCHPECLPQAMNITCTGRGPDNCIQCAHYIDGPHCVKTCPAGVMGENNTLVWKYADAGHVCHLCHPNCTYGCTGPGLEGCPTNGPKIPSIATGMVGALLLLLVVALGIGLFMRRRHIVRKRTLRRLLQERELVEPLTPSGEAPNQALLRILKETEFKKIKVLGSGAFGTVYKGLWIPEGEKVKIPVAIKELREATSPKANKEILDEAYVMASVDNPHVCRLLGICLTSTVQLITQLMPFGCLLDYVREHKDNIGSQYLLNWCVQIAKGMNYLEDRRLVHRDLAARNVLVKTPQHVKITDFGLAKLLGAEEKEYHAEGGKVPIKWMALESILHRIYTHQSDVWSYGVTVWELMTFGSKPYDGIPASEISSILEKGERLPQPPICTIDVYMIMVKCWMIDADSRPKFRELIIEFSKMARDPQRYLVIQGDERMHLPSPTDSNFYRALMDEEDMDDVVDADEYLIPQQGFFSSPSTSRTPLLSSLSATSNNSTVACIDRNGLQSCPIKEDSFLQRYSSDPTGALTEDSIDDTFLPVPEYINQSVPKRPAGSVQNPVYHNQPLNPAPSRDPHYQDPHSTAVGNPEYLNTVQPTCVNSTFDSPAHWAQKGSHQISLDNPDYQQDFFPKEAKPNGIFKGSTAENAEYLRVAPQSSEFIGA

Row | Structure (SMILES) | IC50 [1] [nM] | IC50 [2] [nM] | inhibition of tumour volume, test (c) [3] | growth of transplanted human mammary carcinoma [4] | growth of another carcinoma [5]
1 | Fc1ccc(Nc2ncnc3ccc(NCCCN4CCCC4)cc23)cc1Cl [Example 1, 4-(3'-chloro-4'-fluoroanilino)-6-[3-(pyrrolidin-1-yl)propylamino]quinazoline] | ~76 | ~60 | greater than 50% | – | –
2 | O=CN/C=C/c1cc(O)ccc1O [erbstatin] | – | – | – | specifically attenuates the growth | without effect on the growth
